Converted amounts (≈) assume the structure as drawn. The source made the active and inactive calls. The rule behind the calls is not given here.
What was measured:
Type in all cases: functional
Staphylococcus aureus = assay: Antimicrobial activity against Staphylococcus aureus MTCC 3160 assessed as growth inhibition after 24 hr by broth microdilution method
Bacillus subtilis = assay: Antimicrobial activity against Bacillus subtilis MTCC 121 assessed as growth inhibition after 24 hr by broth microdilution method
Micrococcus luteus = assay: Antimicrobial activity against Micrococcus luteus MTCC 2470 assessed as growth inhibition after 24 hr by broth microdilution method
Klebsiella pneumoniae = assay: Antimicrobial activity against Klebsiella pneumoniae MTCC 109 assessed as growth inhibition after 24 hr by broth microdilution method
Burkholderia cepacia = assay: Antimicrobial activity against Burkholderia cepacia MTCC 438 assessed as growth inhibition after 24 hr by broth microdilution method
Enterobacter cloacae = assay: Antimicrobial activity against Enterobacter cloacae MTCC 509 assessed as growth inhibition after 24 hr by broth microdilution method
Pseudomonas aeruginosa = assay: Antimicrobial activity against Pseudomonas aeruginosa MTCC 424 assessed as growth inhibition after 24 hr by broth microdilution method
Escherichia coli = assay: Antimicrobial activity against Escherichia coli MTCC 43 assessed as growth inhibition after 24 hr by broth microdilution method
Aspergillus niger = assay: Antimicrobial activity against Aspergillus niger MTCC 404 assessed as growth inhibition after 5 days by broth microdilution method
Aspergillus sydowii = assay: Antimicrobial activity against Aspergillus sydowii MTCC 4335 assessed as growth inhibition after 5 days by broth microdilution method
Trichophyton rubrum = assay: Antimicrobial activity against Trichophyton rubrum MTCC 296 assessed as growth inhibition after 5 days by broth microdilution method
Pichia kudriavzevii = assay: Antimicrobial activity against Pichia kudriavzevii MTCC 231 assessed as growth inhibition after 24 hr by broth microdilution method
Aspergillus parasiticus = assay: Antimicrobial activity against Aspergillus parasiticus MTCC 2797 assessed as growth inhibition after 5 days by broth microdilution method
Candida albicans = assay: Antimicrobial activity against Candida albicans MTCC 3017 assessed as growth inhibition after 24 hr by broth microdilution method

Structure (SMILES) | MIC (Staphylococcus aureus; MTCC 3160, 24 h) [mM] | MIC (Bacillus subtilis; MTCC 121, 24 h) [mM] | MIC (Micrococcus luteus; MTCC 2470, 24 h) [µM] | MIC (Klebsiella pneumoniae; MTCC 109, 24 h) [mM] | MIC (Burkholderia cepacia; MTCC 438, 24 h) [mM] | MIC (Enterobacter cloacae; MTCC 509, 24 h) [mM] | MIC (Pseudomonas aeruginosa; MTCC 424, 24 h) [µM] | MIC (Escherichia coli; MTCC 43, 24 h) [mM] | MIC (Micrococcus luteus) | MIC (Burkholderia cepacia) | MIC (Trichophyton rubrum; MTCC 296, 120 h) [µM] | MIC (Pichia kudriavzevii; MTCC 231, 24 h) [µM] | MIC (Candida albicans; MTCC 3017, 24 h) [µM] | MIC (Aspergillus niger; MTCC 404, 120 h) [mM] | MIC (Aspergillus sydowii; MTCC 4335, 120 h) [µM] | MIC (Aspergillus parasiticus; MTCC 2797, 120 h) [µM] | other results
CC1(C)S[C@@H]2[C@H](NC(=O)[C@H](N)c3ccccc3)C(=O)N2[C@H]1C(=O)O [AMPICILLIN] | 0.01 (≈ 3.49 µg/mL) | 0.01 (≈ 3.49 µg/mL) | 10 (≈ 3.49 µg/mL) | 5.7 (≈ 1990 µg/mL) | 5.7 (≈ 1990 µg/mL) | 5.7 (≈ 1990 µg/mL) | 2800 (≈ 978 µg/mL) | 0.08 (≈ 28 µg/mL) | – | – | – | – | – | – | – | – | –
C=CCc1ccc2c(c1)OCO2 [SAFROLE] | – | – | – | – | – | – | – | – | inactive | inactive | 6160 (≈ 999 µg/mL) | 6160 (≈ 999 µg/mL) | 6160 (≈ 999 µg/mL) | – | – | – | MIC (Aspergillus niger): inactive; MIC (Aspergillus sydowii): inactive; MIC (Staphylococcus aureus): inactive; MIC (Bacillus subtilis): inactive; MIC (Klebsiella pneumoniae): inactive; MIC (Enterobacter cloacae): inactive; MIC (Pseudomonas aeruginosa): inactive; MIC (Escherichia coli): inactive; MIC (Aspergillus parasiticus): inactive
Cc1ccc(/C=C/C=O)c([N+](=O)[O-])c1 | 10.5 (≈ 2000 µg/mL) | 2.61 (≈ 499 µg/mL) | 2610 (≈ 499 µg/mL) | 10.5 (≈ 2000 µg/mL) | 2.61 (≈ 499 µg/mL) | 10.5 (≈ 2000 µg/mL) | 2610 (≈ 499 µg/mL) | 2.61 (≈ 499 µg/mL) | – | – | – | – | – | – | – | – | MIC (Aspergillus niger): inactive; MIC (Aspergillus sydowii): inactive; MIC (Trichophyton rubrum): inactive; MIC (Pichia kudriavzevii): inactive; MIC (Aspergillus parasiticus): inactive; MIC (Candida albicans): inactive
COc1ccc(C=O)cc1 [ANISALDEHYDE] | 1.83 (≈ 249 µg/mL) | 14.7 (≈ 2000 µg/mL) | – | 14.7 (≈ 2000 µg/mL) | – | 14.7 (≈ 2000 µg/mL) | – | 14.7 (≈ 2000 µg/mL) | inactive | – | 920 (≈ 125 µg/mL) | 3670 (≈ 500 µg/mL) | 3670 (≈ 500 µg/mL) | 7.34 (≈ 999 µg/mL) | 1830 (≈ 249 µg/mL) | 1830 (≈ 249 µg/mL) | MIC (Pseudomonas aeruginosa): inactive
O=Cc1ccc2c(c1)OCO2 [PIPERONAL] | 3.33 (≈ 500 µg/mL) | 6.66 (≈ 1000 µg/mL) | 3330 (≈ 500 µg/mL) | 3.33 (≈ 500 µg/mL) | – | 3.33 (≈ 500 µg/mL) | 830 (≈ 125 µg/mL) | 3.33 (≈ 500 µg/mL) | – | inactive | 830 (≈ 125 µg/mL) | 830 (≈ 125 µg/mL) | 830 (≈ 125 µg/mL) | 3.33 (≈ 500 µg/mL) | 3330 (≈ 500 µg/mL) | 3330 (≈ 500 µg/mL) | –
O=C/C=C/c1ccc2c(c1)OCO2 | 2.84 (≈ 500 µg/mL) | 2.84 (≈ 500 µg/mL) | 2840 (≈ 500 µg/mL) | 1.42 (≈ 250 µg/mL) | 0.71 (≈ 125 µg/mL) | 1.42 (≈ 250 µg/mL) | 350 (≈ 61.7 µg/mL) | 2.84 (≈ 500 µg/mL) | – | – | 350 (≈ 61.7 µg/mL) | 350 (≈ 61.7 µg/mL) | 350 (≈ 61.7 µg/mL) | 1.42 (≈ 250 µg/mL) | 350 (≈ 61.7 µg/mL) | 710 (≈ 125 µg/mL) | –
O=C(O)/C=C/c1ccccc1 [CINNAMIC ACID] | 3.37 (≈ 499 µg/mL) | 6.75 (≈ 1000 µg/mL) | 6750 (≈ 1000 µg/mL) | 6.75 (≈ 1000 µg/mL) | 6.75 (≈ 1000 µg/mL) | 6.75 (≈ 1000 µg/mL) | 13500 (≈ 2000 µg/mL) | 13.5 (≈ 2000 µg/mL) | – | – | 420 (≈ 62.2 µg/mL) | 840 (≈ 124 µg/mL) | 420 (≈ 62.2 µg/mL) | 1.68 (≈ 249 µg/mL) | 1680 (≈ 249 µg/mL) | 3370 (≈ 499 µg/mL) | –
O=CCCc1ccccc1 [DIHYDROCINNAMALDEHYDE] | 14.9 (≈ 2000 µg/mL) | 7.45 (≈ 1000 µg/mL) | 7450 (≈ 1000 µg/mL) | 7.45 (≈ 1000 µg/mL) | 14.9 (≈ 2000 µg/mL) | 7.45 (≈ 1000 µg/mL) | 7450 (≈ 1000 µg/mL) | 7.45 (≈ 1000 µg/mL) | – | – | 3720 (≈ 499 µg/mL) | 3720 (≈ 499 µg/mL) | 3720 (≈ 499 µg/mL) | 7.45 (≈ 1000 µg/mL) | 3720 (≈ 499 µg/mL) | 14900 (≈ 2000 µg/mL) | –
C/C=C/c1ccc2c(c1)OCO2 [ISOSAFROLE] | – | – | – | – | – | – | – | – | inactive | inactive | 3080 (≈ 500 µg/mL) | – | – | – | – | – | MIC (Aspergillus niger): inactive; MIC (Aspergillus sydowii): inactive; MIC (Staphylococcus aureus): inactive; MIC (Bacillus subtilis): inactive; MIC (Klebsiella pneumoniae): inactive; MIC (Enterobacter cloacae): inactive; MIC (Pseudomonas aeruginosa): inactive; MIC (Escherichia coli): inactive; MIC (Pichia kudriavzevii): inactive; MIC (Aspergillus parasiticus): inactive; MIC (Candida albicans): inactive
COc1cc(OC)c(OC)cc1C=O [ASARALDEHYDE] | 5.1 (≈ 1000 µg/mL) | 5.1 (≈ 1000 µg/mL) | 2550 (≈ 500 µg/mL) | 10.2 (≈ 2000 µg/mL) | 5.1 (≈ 1000 µg/mL) | 10.2 (≈ 2000 µg/mL) | 2550 (≈ 500 µg/mL) | 10.2 (≈ 2000 µg/mL) | – | – | 160 (≈ 31.4 µg/mL) | 2550 (≈ 500 µg/mL) | 2550 (≈ 500 µg/mL) | 5.1 (≈ 1000 µg/mL) | 5100 (≈ 1000 µg/mL) | 2550 (≈ 500 µg/mL) | –
CCOC(=O)/C=C/c1ccc2c(c1)OCO2 | – | – | – | – | – | – | 560 (≈ 123 µg/mL) | – | inactive | inactive | – | – | – | 0.56 (≈ 123 µg/mL) | 140 (≈ 30.8 µg/mL) | 140 (≈ 30.8 µg/mL) | MIC (Staphylococcus aureus): inactive; MIC (Bacillus subtilis): inactive; MIC (Klebsiella pneumoniae): inactive; MIC (Enterobacter cloacae): inactive; MIC (Trichophyton rubrum): inactive; MIC (Escherichia coli): inactive; MIC (Pichia kudriavzevii): inactive; MIC (Candida albicans): inactive
